# Reference: patent US7208517B1, “Endothelin antagonists” (Abbott Labortories, priority 1994, dated 2007)
# Where two headings read alike, the source gives them in different places.
# Assays:
# ETA Receptor = molecular target: T1, ETA Receptor (Rattus norvegicus, UniProt P26684); assay: [125I]ET-1 binding to membranes from MMQ cells (ETA receptor binding assay, Table 4); conditions: test compound at 1 μM, 0.1 nM [125I]ET-1, MMQ cell membranes, 4 hours at 25° C.
# T1 construct: endogenous in cells; host or cells: MMQ rat pituitary cells (membranes)
# T1 sequence (P26684 21-426): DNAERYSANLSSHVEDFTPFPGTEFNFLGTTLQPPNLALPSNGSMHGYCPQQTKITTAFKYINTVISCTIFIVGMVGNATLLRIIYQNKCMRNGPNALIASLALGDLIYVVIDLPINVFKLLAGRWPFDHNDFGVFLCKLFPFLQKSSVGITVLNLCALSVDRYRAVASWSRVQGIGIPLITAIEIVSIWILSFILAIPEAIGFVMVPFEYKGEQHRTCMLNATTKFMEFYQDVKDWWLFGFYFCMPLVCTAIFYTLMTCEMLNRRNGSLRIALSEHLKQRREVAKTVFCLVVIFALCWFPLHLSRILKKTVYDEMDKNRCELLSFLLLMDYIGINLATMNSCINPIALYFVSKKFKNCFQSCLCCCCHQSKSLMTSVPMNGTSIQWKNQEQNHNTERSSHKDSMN
# [1] = tested on: ET-1-induced phosphatidylinositol hydrolysis in MMQ cells; assay: Determination of ET-1-induced phosphatidylinositol (PI) hydrolysis in MMQ cells; assay type: cell-based, rat; conditions: 1 nM ET-1 challenge, read-out: IC50 (inhibition of ET-induced increase in PI turnover)
# Procedure: MMQ cells (0.4×10^6 cells/mL) were labeled with 10 μCi/mL of [^3H]myo-inositol in RPMI for 16 hours. The cells were washed with PBS, then incubated with Buffer A containing protease inhibitors and 10 mM LiCl for 60 minutes. The cells were then incubated with test compounds for 5 minutes, and then challenged with 1 nM ET-1. ET-1 challenge was terminated by the addition of 1.5 mL of 1:2 (v/v) chloroform-methanol. Total inositol phosphates were extracted after adding chloroform and water to give final proportions of 1:1:0.9 (v/v/v) chloroform-methanol-water as described by Berridge (Biochem. J. 206 587–595 (1982)). The upper aqueous phase (1 mL) was retained and a small portion (100 μL) was counted. The rest of the aqueous sample was analyzed by batch chromatography using anion-exchange resin AG1-X8 (Bio-Rad). […] The results of the above study clearly indicate that the compounds act as functional ET antagonists.
# [2] = molecular target: T2, ETB receptors of porcine cerebellar tissues (pET-B) (Sus scrofa, UniProt P35463); assay: ETA/ETB selectivity: (125I)ET-3 competition binding, ETB assay in porcine cerebellum membranes (pET-B); conditions: porcine cerebellum membranes; 0.1 nM (125I)ET-3; read-out: pET-B IC50
# T2 construct: porcine cerebellar tissues (known to contain ETB receptors); from tissue; host or cells: porcine cerebellum (membranes)
# T2 sequence (P35463 27-443): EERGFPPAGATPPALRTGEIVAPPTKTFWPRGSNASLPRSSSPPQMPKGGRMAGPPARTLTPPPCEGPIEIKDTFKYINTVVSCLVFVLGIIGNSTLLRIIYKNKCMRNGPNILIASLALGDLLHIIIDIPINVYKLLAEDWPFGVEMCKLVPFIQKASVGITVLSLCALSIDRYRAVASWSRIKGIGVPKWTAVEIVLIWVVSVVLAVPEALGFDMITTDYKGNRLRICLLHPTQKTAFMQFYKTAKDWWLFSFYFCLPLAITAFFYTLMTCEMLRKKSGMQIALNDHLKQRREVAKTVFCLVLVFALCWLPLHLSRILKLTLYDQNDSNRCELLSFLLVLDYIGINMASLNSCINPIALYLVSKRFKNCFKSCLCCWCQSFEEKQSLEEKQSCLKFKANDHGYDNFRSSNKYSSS
# Procedure: (§1) The mixture was centrifuged at 1000×g for 10 min. The supernatant was collected and centrifuged at 60,000×g for 60 min. The precipitate was resuspended in 20 mM Tris, pH 7.4 containing protease inhibitor and centrifuged again. The final membrane pellet was resuspended in 20 mM Tris, pH 7.4 containing protease inhibitors and stored at −80° C. until used. Protein content was determined by the Bio-Rad dye-binding protein assay.
# (§2) Binding assays were performed in 96-well microtiter plates pretreated with 0.1% BSA. […] After incubation, unbound ligands were separated from bound ligands by a vacuum filtration method using glass-fiber filter strips in PHD cell harvesters (Cambridge Technology, Inc., MA), washing the filter strips three times with saline (1 mL). Nonspecific binding was determined in the presence of 1 μM ET-1. IC50 values are calculated using an average of at least two separate determinations.
# [3] = molecular target: T3, ETA receptor in MMQ cells (rET-A) (Rattus norvegicus, UniProt P26684); assay: ETA/ETB selectivity: (125I)ET-1 competition binding, ETA assay in MMQ cell membranes (rET-A); conditions: MMQ cell membranes; for IC50: 0.1 nM (125I)ET-1, read-out: rET-A IC50
# T3 construct: endogenous in cells; host or cells: MMQ rat pituitary cells (membranes)
# T3 sequence (P26684 21-426): T1 sequence (P26684 21-426)
# Procedure: as §1, §2
# human ETA receptor = molecular target: T4, human ETA receptor (Homo sapiens, UniProt P25101); assay: ETA/ETB selectivity: (125I)ET-1 competition binding, CHO cells transfected with human ETA receptor (hET-A)
# T4 construct: expressed in transfected cells; host or cells: CHO cells, permanently transfected
# T4 sequence (P25101 21-427): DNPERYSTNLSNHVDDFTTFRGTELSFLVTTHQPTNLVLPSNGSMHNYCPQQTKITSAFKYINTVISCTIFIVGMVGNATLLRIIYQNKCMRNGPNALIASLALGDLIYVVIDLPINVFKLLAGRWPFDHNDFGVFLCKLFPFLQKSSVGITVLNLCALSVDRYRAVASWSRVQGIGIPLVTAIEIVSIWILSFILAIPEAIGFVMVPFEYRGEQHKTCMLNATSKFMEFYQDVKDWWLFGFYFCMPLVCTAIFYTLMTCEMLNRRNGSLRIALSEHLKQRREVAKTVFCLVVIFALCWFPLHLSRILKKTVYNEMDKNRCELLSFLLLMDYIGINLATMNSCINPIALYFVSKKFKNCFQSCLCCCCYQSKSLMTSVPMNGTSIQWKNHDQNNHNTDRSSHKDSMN
# Procedure: as §1, §2
# human ETB receptor = molecular target: T5, human ETB receptor (Homo sapiens, UniProt P24530); assay: ETA/ETB selectivity: (125I)ET-3 competition binding, CHO cells transfected with human ETB receptor (hET-B)
# T5 construct: expressed in transfected cells; host or cells: CHO cells, permanently transfected
# T5 sequence (P24530 27-442): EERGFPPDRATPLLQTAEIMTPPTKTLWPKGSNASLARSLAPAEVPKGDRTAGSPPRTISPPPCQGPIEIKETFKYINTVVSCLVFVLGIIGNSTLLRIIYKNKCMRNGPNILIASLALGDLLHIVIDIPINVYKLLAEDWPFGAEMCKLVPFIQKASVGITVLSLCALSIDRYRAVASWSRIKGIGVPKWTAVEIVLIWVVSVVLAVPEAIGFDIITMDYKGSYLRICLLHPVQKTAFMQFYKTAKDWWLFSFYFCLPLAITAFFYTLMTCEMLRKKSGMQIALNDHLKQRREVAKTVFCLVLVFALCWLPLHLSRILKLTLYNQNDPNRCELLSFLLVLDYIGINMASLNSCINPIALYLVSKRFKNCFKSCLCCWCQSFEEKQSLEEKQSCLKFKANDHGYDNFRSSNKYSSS
# Procedure: MMQ cells, porcine cerebellar tissues (known to contain ETB receptors) and chinese hamster ovary cells (CHO) permanently transfected with the human ETA or ETB receptor were homogenized in 25 ml of 10 mM Hepes (pH 7.4) containing 0.25 M sucrose and a protease inhibitor [50 mM EDTA, 0.1 mM PMSF, 5 μg/ml Pepstatin A, and 0.025% Bacitracin] using a micro ultrasonic cell disrupter. The mixture was centrifuged at 1000×g for 10 min. The supernatant was collected and centrifuged at 60,000×g for 60 min. The precipitate was resuspended in 20 mM Tris, pH 7.4 containing protease inhibitor and centrifuged again. The final membrane pellet was resuspended in 20 mM Tris, pH 7.4 containing protease inhibitors and stored at −80° C. until used. Protein content was determined by the Bio-Rad dye-binding protein assay.
# Binding assays were performed in 96-well microtiter plates pretreated with 0.1% BSA. Membranes prepared from cells were diluted 100 fold in Buffer B (20 mM Tris, 100 mM NaCl, 10 mM MgCl2, pH 7.4, with 0.2% BSA, 0.1 mM PMSF, 5 μg/mL Pepstatin A, 0.025% bacitracin, and 50 mM EDTA) to a final concentration of 0.2 mg/mL of protein. In competition binding studies, membranes (0.02 mg) were incubated with 0.1 nM of (^125I)ET-1 (for ETA assay in MMQ or CHO cells transfected with human ETA receptor) or (^125I)ET-3 (for ETB assay in porcine cerebellum or CHO cells transfected with human ETB receptor) in Buffer B (final volume: 0.2 mL) in the presence of increasing concentrations of the test compound for 3 hours at 25° C. After incubation, unbound ligands were separated from bound ligands by a vacuum filtration method using glass-fiber filter strips in PHD cell harvesters (Cambridge Technology, Inc., MA), washing the filter strips three times with saline (1 mL). Nonspecific binding was determined in the presence of 1 μM ET-1. IC50 values are calculated using an average of at least two separate determinations.
# [4] = Determination of plasma protein binding (ultrafiltration, HPLC); assay type: in vitro ADME; parameters: fraction unbound at 1 h: dose or concentration left out as unconfirmed; conditions: fresh plasma, 1 hour at room temperature, read-out: percent of bound compound (plasma protein binding, % PB) (converted)
# Procedure: A stock solution of the test compound in 50% ethanol (2 mg/mL) was diluted 10× into PBS. A 0.4 mL sample of this secondary stock solution was added to 3.6 mL of fresh plasma, and incubated at room temperature for 1 hour. A 1 mL sample of this incubation mixture was transferred to a Centrifree ultrafiltration tube. The sample was centrifuged in a fixed-bucket rotor for approximately 2 min and the filtrate was discarded. The sample was centrifuged for another 15–30 min. A 100 μL sample of the ultrafiltrate was transfered to a micro HPLC sample vial containing […] of HPLC mobile phase and mixed thoroughly. A 50 μL sample was injected and the concentration of drug in the ultrafiltrate was determined by HPLC analysis compared against a standard sample prepared identically in the absence of plasma. Ultrafiltrate concentrations are calculated from a calibration curve. Protein binding is calculated according to the equation: % PB=[1−(Cu/Ci)]*100%
# where Cu is the ultrafiltrate concentration and Ci is the initial plasma concentration.
% Inhibition of ETA at 1 μM (ETA Receptor) [%],IC50 [1] [nM],IC50 [2] [nM],Compound,IC50 ([1]; Rattus norvegicus) [nM],IC50 [3] [nM],further results
100.0,9.8,–,"CCCCN(C(=O)CN1CC(c2ccc3c(c2)OCO3)C(C(=O)O)C1c1ccc(OC)cc1)c1ccccc1 (stereo not drawn) [Example 291, trans,trans-2-(4-Methoxyphenyl)-4-(1,3-benzodioxol-5-yl)-1-(N-butyl-N-phenylaminocarbonylmethyl)-pyrrolidine-3-carboxylic acid]",–,–,–
–,–,0.36,CCCCCS(=O)(=O)N(CCC)CCN1C[C@H](c2ccc3c(c2)OCO3)[C@@H](C(=O)O)[C@@H]1c1ccc(OC)c(F)c1 [Example 534],50,–,–

# More lines, now with the values behind:
Compound,% Inhibition of ETA at 1 μM (ETA Receptor) [%],IC50 [1] [nM],IC50 [2] [nM],IC50 ([1]; Rattus norvegicus) [nM],IC50 [3] [nM],further results
"CCCN(CCN1CC(c2ccc3c(c2)OCO3)C(C(=O)O)C1c1ccc(OC)cc1)S(=O)(=O)c1ccc(OC(F)(F)F)cc1 (stereo not drawn) [Example 300, trans,trans-2-(4-Methoxyphenyl)-4-(1,3-benzodioxol-5-yl)-1-(2-(N-propyl-N-(4-trifluoromethoxybenzenesulfonyl)amino)ethyl)-pyrrolidine-3-carboxylic acid]",96.1,1.2,–,–,–,–
CC=CC(C)(C)CC1C(C(=O)O)C(c2cc(OC)c3c(c2)OCO3)CN1CC(=O)N(CCCC)CCCC (stereo not shown) [Example 553],–,–,42400,0.4,0.26,inhibition at 1 µM ([3]; 1 μM test compound): 100%; IC50 (human ETA receptor): 0.29 nM; IC50 (human ETB receptor): 39500 nM
CCCCN(C(=O)CN1CC(c2ccc3c(c2)OCO3)C(C(=O)O)C1c1ccc(OC)cc1)c1cccc(CN)c1 (stereo not shown) [compound 532],–,–,3200,–,5.1,inhibition at 1 µM (ETA Receptor; read-out: % Inhibition of ETA at 1 μM): 100%; fraction unbound at 1 h [4]: 0.032
